The results in this text go back to patent US7176313B2, “Anti acid-fast bacterial agent containing pyridonecarboxylic acids as active ingredient” (Daiichi Pharmaceutical Co., Ltd., priority 2000, dated 2007).

Converted amounts (≈) assume the structure as drawn. A value given as a limit tells only on which side of the number the result lay.

For this test, the system named is RFP-resistant M. tuberculosis. Briefly: microbe, parasite or virus in culture. Type of test: cell-based, Mycobacterium tuberculosis.
Where [1] appears, read: RFP-resistant M. tuberculosis No. 44, Table 7.
The mark [2] stands for this setting: RFP-resistant M. tuberculosis No. 50, Table 7.
The mark [3] stands for this setting: Mycobacterium tuberculosis, RFP-resistant M. tuberculosis No. 44, Table 7.
[4] abbreviates: Mycobacterium tuberculosis, RFP-resistant M. tuberculosis No. 45, Table 7.
Setting [5] is: Mycobacterium tuberculosis, RFP-resistant M. tuberculosis No. 47, Table 7.
[6] abbreviates: Mycobacterium tuberculosis, RFP-resistant M. tuberculosis No. 50, Table 7.
[7] abbreviates: Mycobacterium tuberculosis, RFP-resistant M. tuberculosis No. 56, Table 7.
Setting [8] is: Mycobacterium tuberculosis, RFP-resistant M. tuberculosis No. 71, Table 7.
Setting [9] is: Mycobacterium tuberculosis, RFP-resistant M. tuberculosis No. 97, Table 7.
Where [10] appears, read: Mycobacterium tuberculosis, RFP-resistant M. tuberculosis No. 44, Table 8 (series 2).
Where [11] appears, read: Mycobacterium tuberculosis, RFP-resistant M. tuberculosis No. 45, Table 8 (series 2).
Where [12] appears, read: Mycobacterium tuberculosis, RFP-resistant M. tuberculosis No. 50, Table 8 (series 2).
[13] abbreviates: Mycobacterium tuberculosis, RFP-resistant M. tuberculosis No. 51, Table 8 (series 2).
Setting [14] is: Mycobacterium tuberculosis, RFP-resistant M. tuberculosis No. 56, Table 8 (series 2).
[15] abbreviates: Mycobacterium tuberculosis, RFP-resistant M. tuberculosis No. 71, Table 8 (series 2).
The mark [16] stands for this setting: Mycobacterium tuberculosis, RFP-resistant M. tuberculosis No. 97, Table 8 (series 2).
[17] abbreviates: RFP-resistant M. tuberculosis No. 44, Table 8 (series 2).
Where [18] appears, read: RFP-resistant M. tuberculosis No. 45, Table 8 (series 2).
The mark [19] stands for this setting: RFP-resistant M. tuberculosis No. 50, Table 8 (series 2).
[20] abbreviates: RFP-resistant M. tuberculosis No. 51, Table 8 (series 2).
[21] abbreviates: RFP-resistant M. tuberculosis No. 56, Table 8 (series 2).
Setting [22] is: RFP-resistant M. tuberculosis No. 71, Table 8 (series 2).
[23] abbreviates: RFP-resistant M. tuberculosis No. 97, Table 8 (series 2).

In turn, `C[C@H]1COc2c(N3CC(N)C4(CC4)C3)c(F)cc3c(=O)c(C(=O)O)cn1c23` (stereo partly drawn) [Compd. 14] yielded an MIC under setting [1] of 0.78 µg/mL (≈ 2.09 µM) and an MIC under setting [2] of 0.39 µg/mL (≈ 1.04 µM).

Take `COc1c(N2CCN(C)CC2)c(F)cc2c(=O)c(C(=O)O)cn([C@@H]3C[C@@H]3F)c12` [Compd. 15, 6-Fluoro-1-[2-(S)-fluoro-1-(R)-cyclopropyl]-1,4-dihydro-8-methoxy-7-(4-methylpiperazin-1-yl)-4-oxoquinoline-3-carboxylic acid]: the MIC runs as follows: under setting [3], 0.2 µg/mL (≈ 0.508 µM); under setting [4], 1.56 µg/mL (≈ 3.97 µM); under setting [5], 0.39 µg/mL (≈ 0.991 µM); under setting [6], 0.2 µg/mL (≈ 0.508 µM); under setting [7], 6.25 µg/mL (≈ 15.9 µM); under setting [8], 0.39 µg/mL (≈ 0.991 µM). Under setting [9], this compound came in with an MIC of 1.56 µg/mL (≈ 3.97 µM).

In the case of `COc1c(N2C[C@@H](C)N[C@@H](C)C2)c(F)cc2c(=O)c(C(=O)O)cn([C@@H]3C[C@@H]3F)c12` [Compd. 16, 7-(3,5-cis-Dimethylpiperazin-1-yl)-6-fluoro-1-[2-(S)-fluoro-1-(R)-cyclopropyl]-1,4-dihydro-8-methoxy-4-oxoquinoline-3-carboxylic acid], the MIC was 0.25 µg/mL (≈ 0.614 µM) under setting [10]; 4 µg/mL (≈ 9.82 µM) under setting [11]; 0.5 µg/mL (≈ 1.23 µM) (Mycobacterium tuberculosis, RFP-resistant M. tuberculosis No. 47, Table 8 (series 2)); 0.12 µg/mL (≈ 0.295 µM) under setting [12]; 0.5 µg/mL (≈ 1.23 µM) under setting [13]; 64 µg/mL (≈ 157 µM) under setting [14]. Further, the MIC is 0.5 µg/mL (≈ 1.23 µM) under setting [15] and 1 µg/mL (≈ 2.45 µM) under setting [16].

In the case of `COc1c(N2CCNC(CF)C2)c(F)cc2c(=O)c(C(=O)O)cn([C@@H]3C[C@@H]3F)c12` (stereo partly drawn) [Compd. 19, 6-Fluoro-1-[(1R,2S)-2-fluorocyclopropyl]-7-(3-fluoromethylpiperazin-1-yl)-1,4-dihydro-8-methoxy-4-oxoquinoline-3-carboxylic acid], the MIC is, setting by setting: under setting [10], 0.39 µg/mL (≈ 0.948 µM); under setting [11], 3.13 µg/mL (≈ 7.61 µM); under setting [12], 0.2 µg/mL (≈ 0.486 µM); under setting [13], 0.78 µg/mL (≈ 1.9 µM); under setting [14], 50 µg/mL (≈ 122 µM); under setting [15], 1.56 µg/mL (≈ 3.79 µM). The compound also had an MIC under setting [16] of 1.56 µg/mL (≈ 3.79 µM).

`COc1c(N2CCNC(CF)(CF)C2)c(F)cc2c(=O)c(C(=O)O)cn([C@@H]3C[C@@H]3F)c12` [Compd. 20, 6-Fluoro-1-[(1R,2S)-2-fluorocyclopropyl]-7-(3,3′-difluoromethylpiperazin-1-yl)-1,4-dihydro-8-methoxy-4-oxoquinoline-3-carboxylic acid]: the MIC under setting [10] is 0.39 µg/mL (≈ 0.88 µM); the MIC under setting [11] was found to be 6.25 µg/mL (≈ 14.1 µM); the MIC under setting [12] turned out to be 0.39 µg/mL (≈ 0.88 µM); the MIC under setting [13] came to 0.78 µg/mL (≈ 1.76 µM); the MIC under setting [14] is 50 µg/mL (≈ 113 µM); the MIC under setting [15] came to 1.56 µg/mL (≈ 3.52 µM). The MIC under setting [16] is 1.56 µg/mL (≈ 3.52 µM).

As to `COCC1CN(c2c(F)cc3c(=O)c(C(=O)O)cn([C@@H]4C[C@@H]4F)c3c2OC)CCN1` (stereo partly drawn) [Compd. 21, 6-Fluoro-1-[(1R,2S)-2-fluorocyclopropyl]-1,4-dihydro-8-methoxy-7-(3-methoxymethylpiperazin-1-yl)-4-oxoquinoline-3-carboxylic acid], the MIC reads like this: under setting [10], 0.39 µg/mL (≈ 0.921 µM); under setting [11], 3.13 µg/mL (≈ 7.39 µM); under setting [12], 0.39 µg/mL (≈ 0.921 µM); under setting [13], 0.78 µg/mL (≈ 1.84 µM); under setting [14], 25 µg/mL (≈ 59 µM); under setting [15], 1.56 µg/mL (≈ 3.68 µM). The same compound gave an MIC under setting [16] of 1.56 µg/mL (≈ 3.68 µM).

Take `COc1c(N2CCNC3(CC3)C2)c(F)cc2c(=O)c(C(=O)O)cn([C@@H]3C[C@@H]3F)c12` [Compd. 22, 7-{4,7-Diazaspiro[2.5]octan-7-yl}-6-fluoro-1-[(1R,2S)-2-fluorocyclopropyl]-1,4-dihydro-8-methoxy-4-oxoquinoline-3-carboxylic acid]: the MIC was 0.78 µg/mL (≈ 1.92 µM) under setting [10]; 25 µg/mL (≈ 61.7 µM) under setting [11]; 0.78 µg/mL (≈ 1.92 µM) under setting [12]; 1.56 µg/mL (≈ 3.85 µM) under setting [13]; 100 µg/mL (≈ 247 µM) under setting [14]; 3.13 µg/mL (≈ 7.72 µM) under setting [15]. Moreover, under setting [16], the MIC is 6.25 µg/mL (≈ 15.4 µM).

Regarding `COc1c(C2CNC3(CCC3)CN2)c(F)cc2c(=O)c(C(=O)O)cn([C@@H]3C[C@@H]3F)c12` (stereo partly drawn) [Compd. 23, 7-{5,8-Diazaspiro[3.5]nonan-7-yl}-6-fluoro-1-[(1R,2S)-2-fluorocyclopropyl]-1,4-dihydro-8-methoxy-4-oxoquinoline-3-carboxylic acid], the MIC reads like this: under setting [10], 1.56 µg/mL (≈ 3.72 µM); under setting [11], 25 µg/mL (≈ 59.6 µM); under setting [12], 1.56 µg/mL (≈ 3.72 µM); under setting [13], 6.25 µg/mL (≈ 14.9 µM); under setting [14], 100 µg/mL (≈ 238 µM); under setting [15], 12.5 µg/mL (≈ 29.8 µM). The compound also registered an MIC under setting [16] of 12.5 µg/mL (≈ 29.8 µM).

In the case of `COc1c(N2CCNC(C3CC3)C2)c(F)cc2c(=O)c(C(=O)O)cn([C@@H]3C[C@@H]3F)c12` (stereo partly drawn) [Compd. 24, 7-(3-Cyclopropylpiperazin-1-yl)-6-fluoro-1-[(1R,2S)-2-fluorocyclopropyl]-1,4-dihydro-8-methoxy-4-oxoquinoline-3-carboxylic acid], the MIC was 0.78 µg/mL (≈ 1.86 µM) under setting [10]; 12.5 µg/mL (≈ 29.8 µM) under setting [11]; 0.39 µg/mL (≈ 0.93 µM) under setting [12]; 1.56 µg/mL (≈ 3.72 µM) under setting [13]; 50 µg/mL (≈ 119 µM) under setting [14]; 3.13 µg/mL (≈ 7.46 µM) under setting [15]. Under setting [16], this compound came in with an MIC of 3.13 µg/mL (≈ 7.46 µM).

Turning to `COc1c(N2CCN[C@@H](c3ccccc3)C2)c(F)cc2c(=O)c(C(=O)O)cn([C@@H]3C[C@@H]3F)c12.Cl` [Compd. 26], the MIC by setting is: under setting [17], 0.1 µg/mL; under setting [18], 1.56 µg/mL; under setting [19], 0.1 µg/mL; under setting [20], 0.2 µg/mL; under setting [21], 12.5 µg/mL; under setting [22], 0.78 µg/mL. Moreover, the MIC under setting [23] was found to be 0.78 µg/mL.

`C[C@H]1COc2c(N3CCN[C@@H](c4ccccc4)C3)c(F)cc3c(=O)c(C(=O)O)cn1c23` [Compd. 27, 9-Fluoro-2,3-dihydro-3-(S)-methyl-7-oxo-10-[3-(S)-phenyl-1-piperazinyl]-7H-pyrido[1.2.3-de][1,4]benzoxazine-6-carboxylic acid] gave an MIC under setting [17] of 0.1 µg/mL (≈ 0.236 µM); an MIC under setting [18] of 1.56 µg/mL (≈ 3.68 µM); an MIC under setting [19] of 0.1 µg/mL (≈ 0.236 µM); an MIC under setting [20] of 0.2 µg/mL (≈ 0.472 µM); an MIC under setting [21] of 6.25 µg/mL (≈ 14.8 µM); an MIC under setting [22] of 0.39 µg/mL (≈ 0.921 µM). In addition, the MIC under setting [23] was found to be 0.78 µg/mL (≈ 1.84 µM).

For the compound `COc1c(N2CCN3CCC2C3)c(F)cc2c(=O)c(C(=O)O)cn([C@@H]3C[C@@H]3F)c12` (stereo partly drawn) [Compd. 28, 7-{1,4-Diazabicyclo[3.2.1]octan-4-yl}-6-fluoro-1-[(1R,2S)-2-fluorocyclopropyl]-1,4-dihydro-8-methoxy-4-oxoquinoline-3-carboxylic acid], the MIC under setting [10] came out at 0.2 µg/mL (≈ 0.493 µM); the MIC under setting [11] is 3.13 µg/mL (≈ 7.72 µM); the MIC under setting [12] worked out at 0.2 µg/mL (≈ 0.493 µM); the MIC under setting [13] turned out to be 0.78 µg/mL (≈ 1.92 µM); the MIC under setting [14] stood at 12.5 µg/mL (≈ 30.8 µM); the MIC under setting [15] was determined as 1.56 µg/mL (≈ 3.85 µM). Further, under setting [16], the MIC was 1.56 µg/mL (≈ 3.85 µM).

Compound `CC1COc2c(N3CCN(C)CC3)c(F)cc3c(=O)c(C(=O)O)cn1c23` (stereo not drawn) [OFLX, OFLOXAIN, reference compound] displayed an MIC under setting [1] of 1.56 µg/mL (≈ 4.32 µM); an MIC under setting [17] of 2.0 µg/mL (≈ 5.53 µM); an MIC (RFP-resistant M. tuberculosis No. 45, Table 7) of 25 µg/mL (≈ 69.2 µM); an MIC under setting [18] of 3.20 µg/mL (≈ 8.86 µM); an MIC (RFP-resistant M. tuberculosis No. 47, Table 8 (series 2)) of 8.0 µg/mL (≈ 22.1 µM); an MIC under setting [2] of 0.78 µg/mL (≈ 2.16 µM). Moreover, the MIC by setting is: under setting [19], 1.0 µg/mL (≈ 2.77 µM); under setting [20], 4.0 µg/mL (≈ 11.1 µM); under setting [21], 16 µg/mL (≈ 44.3 µM); under setting [22], 4.0 µg/mL (≈ 11.1 µM); under setting [23], 16 µg/mL (≈ 44.3 µM).

As to `CO[C@H]1/C=C/O[C@@]2(C)Oc3c(C)c(O)c4c(O)c(c(/C=N/N5CCN(C)CC5)c(O)c4c3C2=O)NC(=O)/C(C)=C\C=C\[C@H](C)[C@H](O)[C@@H](C)[C@@H](O)[C@@H](C)[C@H](OC(C)=O)[C@@H]1C` [RFP, rifampicin, reference compound], the MIC was > 100 µg/mL under setting [3]; > 100 µg/mL under setting [4]; > 100 µg/mL under setting [5]; > 100 µg/mL under setting [6]; > 100 µg/mL (Mycobacterium tuberculosis, RFP-resistant M. tuberculosis No. 51, Table 7); > 100 µg/mL under setting [7]. The MIC is > 100 µg/mL under setting [8] and > 100 µg/mL under setting [9].
